In patent US11480877B2, “Resist composition, method for forming resist pattern, and polyphenol compound used therein” (Mitsubishi Gas Chemical Company, Inc., priority 2015, dated 2022):

Experiment: Safe solvent solubility test of compound
Type: physicochemical
Settings: for Solubility in CHN (amount of dissolution) / Solubility in PGME (amount of dissolution) / Solubility in PGME A (amount of dissolution): 23° C., ultrasonic waves 30 minutes, visual observation; for Solubility in PGME A (amount of dissolution) / Solubility in safe solvents (in words): PGMEA; for Solubility in safe solvents (in words): safe solvents PGME; for Solubility in CHN (amount of dissolution) / Solubility in safe solvents (in words): CHN
Protocol: The solubilities of the compound in PGME, PGMEA, and CHN were evaluated according to the following criteria utilizing the amount of dissolution in each solvent. The amount of dissolution was measured at 23° C. by precisely weighing the compound into a test tube, adding a subject solvent so as to attain a predetermined concentration, applying ultrasonic waves for 30 minutes in an ultrasonic cleaner, and visually observing the subsequent state of the fluid.
A: 5.0% by mass≤Amount of dissolution
B: 2.0% by mass≤Amount of dissolution<5.0% by mass
C: Amount of dissolution<2.0% by mass • (2) Storage Stability and Thin Film Formability of Resist Composition

| Structure (SMILES) | Solubility in CHN (amount of dissolution) | Solubility in PGME (amount of dissolution) | Solubility in PGME A (amount of dissolution) | Solubility in safe solvents (in words) |
| --- | --- | --- | --- | --- |
| Oc1ccc2c3c(ccc2c1)Oc1ccc2cc(O)ccc2c1C3c1ccc(-c2ccccc2)cc1 [Production Example 1, reference compound] | A (5.0% by mass ≤ Amount of dissolution) | A (5.0% by mass ≤ Amount of dissolution) | A (5.0% by mass ≤ Amount of dissolution) |  |
| Oc1ccc2c3c(ccc2c1)Oc1ccc2cc(O)ccc2c1C3c1cccc(I)c1 [Synthesis Example 1] | A (5.0% by mass ≤ Amount of dissolution) | A (5.0% by mass ≤ Amount of dissolution) | A (5.0% by mass ≤ Amount of dissolution) | high solubility |
| Oc1ccc2c3c(ccc2c1)Oc1ccc2cc(O)ccc2c1C3c1ccc(I)cc1 [Synthesis Example 2] | A (5.0% by mass ≤ Amount of dissolution) | A (5.0% by mass ≤ Amount of dissolution) | A (5.0% by mass ≤ Amount of dissolution) | high solubility |
| COc1cc(C2c3c(ccc4cc(O)ccc34)Oc3ccc4cc(O)ccc4c32)cc(I)c1O [Synthesis Example 3] | A (5.0% by mass ≤ Amount of dissolution) | A (5.0% by mass ≤ Amount of dissolution) | A (5.0% by mass ≤ Amount of dissolution) | high solubility |
| Oc1ccc2ccc3c(c2c1)C(c1cccc(I)c1)c1c(ccc2ccc(O)cc12)O3 [Synthesis Example 4] | B (2.0% by mass ≤ Amount of dissolution <5.0% by mass) | A (5.0% by mass ≤ Amount of dissolution) | A (5.0% by mass ≤ Amount of dissolution) | high solubility |
| Oc1ccc2ccc3c(c2c1)C(c1ccc(I)cc1)c1c(ccc2ccc(O)cc12)O3 [Synthesis Example 5] | A (5.0% by mass ≤ Amount of dissolution) | A (5.0% by mass ≤ Amount of dissolution) | C (Amount of dissolution <2.0% by mass) | high solubility |
| COc1cc(C2c3c(ccc4ccc(O)cc34)Oc3ccc4ccc(O)cc4c32)cc(I)c1O [Synthesis Example 6] | A (5.0% by mass ≤ Amount of dissolution) | A (5.0% by mass ≤ Amount of dissolution) | A (5.0% by mass ≤ Amount of dissolution) | high solubility |
